Assay results from patent US8859615B2, “Compounds, compositions and methods for reducing toxicity and treating or preventing diseases” (priority 2008, dated 2014).
Where two headings read alike, the source gives them in different places.

What was measured:
[1] = system: human neuroblastoma IMR-32 cells; experiment: 50% toxicity in the IMR-32 induction assay (Table 12); type: cell-based
Protocol: (§1) Compounds were screened for AKR1C enzyme activity as set forth in Halim, M.; Yee, D. J. and Sames, D. J. Am. Chem. Soc. 2008, […], 14123-14128. […] Specifically, coumberone metabolism studies in IMR-32 can be done as follows: Early-passage (<P25) IMR-32 cells were seeded at a density of 4×10^4 cells/well in 96-well dish. They were then treated with the various inducers or DMSO vehicle (0.5% v/v) control. The concentration of each inducer was varied from 50 nM to 60 μM and the cells were incubated with these for either 24 or 48 hours. 72 hours after seeding, the media was removed and 100 μL of experimental media (DMEM without phenol red supplemented with 100 units/ml penicillin, 100 μg/ml streptomycin, 4 mM L-glutamine and 1% charcoal-dextran treated FBS) was added and incubated for 2 hrs. 100 μl more of the experimental media containing Coumberone (final concentration of 5 μM) was then added. The fluorescence of the cell culture medium was recorded on a plate reader MicroMax 384 connected to a Jobin Yvon Fluorolog by detecting fluorescence at 510 nm upon excitation at 385 nm. The reading was taken every 6 hours for 72 hours. Metabolic conversion rate was obtained by measuring the change in fluorescence per hour for the first 36 hours. The relative increase in metabolic rate was calculated by dividing the metabolic conversion rates of cells incubated with the activator compounds with those incubated with DMSO vehicle. […] Fold-induction is the increase metabolic activity of the reporter. […] “None” indicates no observed induction.

[2] = system: AKR1C2 and AKR1C3 in human neuroblastoma IMR-32 cells; experiment: Induction of AKR1C enzymes, coumberone metabolism (Tables 12, 13); conditions: for Fold induction of AKR1C2 and AKR1C3 in IMR-32 cells (result in words): inducer varied from 50 nM to 60 μM
Protocol: as §1
The IMR-32 induction assay was run as follows. Early-passage (<P25) IMR-32 cells were seeded at a density of 4×10^4 cells/well in 96-well dish. They were then treated with the various inducers or DMSO vehicle (0.5% v/v) control. The concentration of each inducer was varied from 50 nM to 60 μM and the cells were incubated with these for either 24 or 48 hours. 72 hours after seeding, the media was removed and 100 μL of experimental media (DMEM without phenol red supplemented with 100 units/ml penicillin, 100 μg/ml streptomycin, 4 mM L-glutamine and 1% charcoal-dextran treated FBS) was added and incubated for 2 hrs. 100 μl more of the experimental media containing Coumberone (final concentration of 5 μM) was then added. The fluorescence of the cell culture medium was recorded on a plate reader MicroMax 384 connected to a Jobin Yvon Fluorolog by detecting fluorescence at 510 nm upon excitation at 385 nm. The reading was taken every 6 hours for 72 hours. Metabolic conversion rate was obtained by measuring the change in fluorescence per hour for the first 36 hours. The relative increase in metabolic rate was calculated by dividing the metabolic conversion rates of cells incubated with the activator compounds with those incubated with DMSO vehicle. […] J. Am. Chem. Soc. 2008, 130, 14123-[…].

[3] = system: CCRF-CEM human T-cell acute lymphoblastic leukemia cells; experiment: In vitro cytotoxicity against CCRF-CEM (XTT / CCK-8 tetrazolium assay, 72 hr); conditions: Homo sapiens, CCRF-CEM, read-out: IC50 (μM) CCRF-CEM
Protocol: The cytotoxicity IC50 of each compound was measured with the XTT assay using the 2,3-bis(2-methoxy-4-nitro-5-sulfophenyl)-5-[(phenylamino)carbonyl]-2H-tetrazolium hydroxide (XTT) microculture method as described in Scudiero et al., Cancer Res., 48:4827 (1988), the contents of which are hereby incorporated by reference in their entirety. The CCK-8 assay is a cell counting kit-8 (CCK-8) tetrazolium assay using a 96-well microplate (Dojindo Molecular Technologies, Inc., Rockville, Md.) (M. Ishiyama et al., Biol. Pharm. Bull. 19: 1518, 1996). Absorbance was measured by Powerwave a XS microplate spectrophotometer. This method described is considered a general method in vitro cytotoxicity studies.
The data in Tables 2X, 3A-E, 4, 5, and 6 were obtained using the cell counting kit-8 (CCK-8) tetrazolium assay in a 96-well microplate. Five to seven concentrations of each compound in triplicate were used, and the IC50 values were determined by CompuSyn software automation (Chou T C. and Martin N. ComboSyn, Inc., 2006) based on the median-effect equation and plot (Chou T C. J. Theor. Biol. 59:235-276, 1976; Chou T C. Pharmacol. Rev. 58: 621-681, 2006). […] The r value defines the correlation coefficient of the median-effect plot which signifies the conformity to the mass-action law principle (Chou T C. J. Theor. Biol. 59:235-276, 1976; Chou T C. Pharmacol. Rev. 58:621-681, 2006). These parameters were determined by CompuSyn simulation (available at http://www.combosyn.com).
CCRF-CEM human T-cell acute lymphoblastic leukemia cells and the corresponding vinblastine-resistant cells (CCRF-CEM/VBL100) were cultured at an initial density of 5×10^4 cells per milliliter. The cultured cells were maintained in a 5% CO2-humidified atmosphere at 37° C. in RPMI medium 1640 (GIBCO/BRL) containing penicillin (100 units/mL), streptomycin (100 μg/mL, GIBCO/BRL), and 10% heat-inactivated fetal bovine serum. The cytotoxicity of each Compound of the invention was measured using the 2,3-bis(2-methoxy-4-nitro-5-sulfophenyl)-5-[(phenylamino)carbonyl]-2H-tetrazolium hydroxide (XTT) microculture method as described in Scudiero et al., Cancer Res., 48:4827 (1988), the contents of which are hereby incorporated by reference in their entirety.
Absorbance was measured by Powerwave XS microplate spectrophotometer.

[4] = Homo sapiens, IMR-32, read-out: 50% toxicity in IMR-32 cells
[5] = Homo sapiens, IMR-32, read-out: Fold induction of AKR1C2 and AKR1C3 in IMR-32 cells
[6] = Homo sapiens, IMR-32; read-out: 50% toxicity in IMR-32 cells
[7] = Homo sapiens, IMR-32, sub-head printed inside Table 13 r22; read-out: IC50 (μM) IMR-32

## CCCCCCC[C@@H](O)[C@H](O)CC#CC#C[C@H](O)c1ccccc1
[1]; listed as 19; read-out: 50% toxicity in IMR-32 cells
  IC50: > 40 µM
[2]
  Fold induction of AKR1C2 and AKR1C3 in IMR-32 cells (result in words): None

## CCCCCCC[C@@H](O)[C@H](O)CC#CC#CCO
[3]
  IC50: 5.57 µM

## CC12COC3(O)C4O[C@H]5CCC1(O)C45CC(O)C32C (mixture of isomers) [Compound 33]
[1]; [4]
  IC50: > 40 µM
[2]
  Fold induction of AKR1C2 and AKR1C3 in IMR-32 cells (result in words): None

## C=C[C@@H](O)C#CC#CC[C@@H](O)[C@H](O)CCCCCCC [Compound 1]
[1]; [4]
  IC50: > 40 µM
[2]; [5]
  fold induction at 20 µM: 2

## C=C[C@H](C#CC#CC[C@H]1OC(C)(C)O[C@@H]1CCCCCCC)OC(C)=O [Compound 4]
[1]; [6]
  IC50: > 40 µM
[2]; [5]
  fold induction at 20 µM: 1.5

## CCCCCCC[C@H]1OC(C)(C)O[C@@H]1CC#CC#CC(=O)CC [Compound 5]
[2]
  Fold induction of AKR1C2 and AKR1C3 in IMR-32 cells (result in words): None

## C=CC(=O)C#CC#CC[C@H]1OC(C)(C)O[C@@H]1CCCCCCC [Compound 6]
[2]
  Fold induction of AKR1C2 and AKR1C3 in IMR-32 cells (result in words): None

## C=C[C@H](C#CC#CC[C@H]1OC(C)(C)O[C@@H]1CCCCCCC)OC [Compound 7]
[2]
  Fold induction of AKR1C2 and AKR1C3 in IMR-32 cells (result in words): None

## CCCCCCC[C@H]1OC(C)(C)O[C@@H]1CC#CC(O)CC (some centres unmarked) [Compound 10]
[1]; [6]
  IC50: ~25 µM
[2]
  Fold induction of AKR1C2 and AKR1C3 in IMR-32 cells (result in words): None

## CCCCCCC[C@H]1OC(C)(C)O[C@@H]1Cc1nnn(Cc2ccccc2)c1C(O)CC (some centres unmarked) [Compound 11]
[1]; [6]
  IC50: ~35 µM
[2]
  Fold induction of AKR1C2 and AKR1C3 in IMR-32 cells (result in words): None

## CCCCCCC[C@H]1OC(C)(C)O[C@@H]1Cc1c[nH]nn1 [Compound 12]
[1]; [6]
  IC50: ~35 µM
[2]
  Fold induction of AKR1C2 and AKR1C3 in IMR-32 cells (result in words): None

## CCCCCCC[C@H]1OC(C)(C)O[C@@H]1Cc1ccc(C=O)cc1 [Compound 13]
[1]; [6]
  IC50: ~30 µM
[2]
  Fold induction of AKR1C2 and AKR1C3 in IMR-32 cells (result in words): None

## CCCCCCC[C@H]1OC(C)(C)O[C@@H]1Cc1ccc(C(O)CC)cc1 (some centres unmarked) [Compound 14]
[1]; [6]
  IC50: ~40 µM
[2]
  Fold induction of AKR1C2 and AKR1C3 in IMR-32 cells (result in words): None

## C=CC(O)c1ccc(C[C@H]2OC(C)(C)O[C@@H]2CCCCCCC)cc1 (some centres unmarked) [Compound 15]
[1]; [6]
  IC50: ~40 µM
[2]
  Fold induction of AKR1C2 and AKR1C3 in IMR-32 cells (result in words): None

## C=C[C@H](O)C#CC#CC[C@H](O)[C@@H](O)CCCCCCC [Compound 16]
[1]; [4]
  IC50: ~12 µM
[2]; Homo sapiens, IMR-32, read-out: EC50 of induction of AKR1C2 and AKR1C3 in IMR-32 cells
  EC50: ~3.5 µM
[2]; [5]
  fold induction at 5 µM: 2.3

## C=C[C@H](O)C#CC#CC[C@@H]1OC(C)(C)O[C@H]1CCCCCCC [Compound 17]
[1]; [6]
  IC50: ~5 µM

## O=C1NC2(CCCCC2)C(=O)N2CCC[C@@H]12 [Compound 26]
[2]
  Fold induction of AKR1C2 and AKR1C3 in IMR-32 cells (result in words): None

## C=C[C@@](C)(O)C#CC#CC[C@H]1OC(C)(C)O[C@@H]1CCCCCCC [analog 8]
[2]
  Fold induction of AKR1C2 and AKR1C3 in IMR-32 cells (result in words): None

## CCCCCCC[C@H]1OC(C)(C)O[C@@H]1CC#CC#C/C=C/CO [analog 9]
[2]
  Fold induction of AKR1C2 and AKR1C3 in IMR-32 cells (result in words): None

## C=C[C@H](O)C#CC#CC[C@H](O)[C@@H](O)CCCCCCC [drawing 241]
[3]
  IC50: 2.69 µM

## CCCCCCC[C@@H](O)[C@H](O)CC#CC#CC(O)/C=C/c1ccccc1 (some centres unmarked) [drawing 243]
[3]
  IC50: 9.46 µM

## CCCCCCC[C@@H](O)[C@H](O)CC#CC#C[C@H](O)c1ccccc1 [drawing 244]
[3]
  IC50: 5.96 µM

## CCCCCCC[C@H]1OC(C)(C)O[C@@H]1CC#CC#C[C@H](O)c1ccccc1 [drawing 245]
[3]
  IC50: 2.49 µM

## CCCCCCC[C@H]1OC(C)(C)O[C@@H]1Cc1ccc(C=O)cc1 [drawing 246]
[3]
  IC50: 12.6 µM

## C=CC(O)c1ccc(C[C@H]2OC(C)(C)O[C@@H]2CCCCCCC)cc1 (some centres unmarked) [drawing 247]
[3]
  IC50: 5.25 µM

## CCCCCCC[C@H]1OC(C)(C)O[C@@H]1Cc1ccc(C(O)CC)cc1 (some centres unmarked) [drawing 248]
[3]
  IC50: 4.18 µM

## CCCCCCC[C@H]1OC(C)(C)O[C@@H]1Cc1nnn(Cc2ccccc2)c1C(O)CC (some centres unmarked) [drawing 249]
[1]; [7]
  IC50: 35 µM

## CCCCCCC[C@H]1OC(C)(C)O[C@@H]1Cc1c[nH]nn1 [drawing 250]
[1]; [7]
  IC50: 35 µM

## CCCCCCC[C@H]1OC(C)(C)O[C@@H]1CC#CC(O)CC (some centres unmarked) [drawing 251]
[1]; [7]
  IC50: 25 µM
